Measurements reported in US9187465B2, “Oxazole tyrosine kinase inhibitors” (Sareum Limited, priority 2007, dated 2015).

Assays:
human FLT4 = molecular target: T1, human FLT4 (Homo sapiens, UniProt P35916); assay: FLT4 kinase assay (DELFIA enzyme inhibition); type: biochemical; conditions: read-out: FLT4 IC50
T1 construct: a construct expressing the human FLT4 (789-1207) with an amino terminal GST tag; host or cells: Sf9 insect cells (baculovirus)
Protocol: A GST-kinase fusion protein of 70 KDa was produced using sf9 baculovirus expression system, with a construct expressing the human FLT4 (789-1207) with an amino terminal GST tag. The protein was purified by affinity chromatography using glutathione-agarose followed by separation on a gel filtration column.
FLT4 enzyme activity is determined using a Dissociation Enhanced Lanthanide Fluorescent Immunoassay (DELFIA) with a peptide substrate derived from the MET (Tyr 1253) peptide […] with a core sequence […].
The amount of phosphorylated peptide produced is detected by means of a phospho-Tyrosine specific Europium-labelled antibody using Time-Resolved Fluorescence at Excitation 360-35 nm and Emission 620-35 nm.
Assay reactions are set up in a 25 uL final volume on a 96 well plate. […] The reaction is allowed to proceed for 30 minutes at room temperature before stopping with 100 uL Stop solution comprising of 100 mM EDTA, 1×BSA blocker in TBS (Perbio) and 0.05% Surfact-Amps20 (Perbio).
The stopped reaction is transferred to a black 96-well Neutravidin-coated plate (Perbio) and incubated for 30 minutes to capture the biotinylated peptide substrate. After washing wells 3 times with 200 uL TBS/T buffer, Anti-Phospho-Tyr-100 antibody labelled with Eu—N1 (Perkin Elmer AD0159) is added to all wells for 60 minutes at room temperature. After a repeat washing step, DELFIA Enhancement solution (Perkin Elmer) is added to all wells for 5 minutes and the fluorescence measured on a plate reader Analyst HT (Molecular Devices).
The % inhibition of the activity is calculated and plotted in order to determine the concentration of test compound required to inhibit 50% of the enzyme activity (IC50).

human Aurora A = molecular target: T2, human Aurora A (Homo sapiens, UniProt O14965); assay: Aurora A kinase assay (DELFIA enzyme inhibition); type: biochemical; conditions: read-out: Aurora A IC50
T2 construct: Histidine tag (N); host or cells: Sf9 insect cells (baculovirus)
T2 sequence (O14965 1-403): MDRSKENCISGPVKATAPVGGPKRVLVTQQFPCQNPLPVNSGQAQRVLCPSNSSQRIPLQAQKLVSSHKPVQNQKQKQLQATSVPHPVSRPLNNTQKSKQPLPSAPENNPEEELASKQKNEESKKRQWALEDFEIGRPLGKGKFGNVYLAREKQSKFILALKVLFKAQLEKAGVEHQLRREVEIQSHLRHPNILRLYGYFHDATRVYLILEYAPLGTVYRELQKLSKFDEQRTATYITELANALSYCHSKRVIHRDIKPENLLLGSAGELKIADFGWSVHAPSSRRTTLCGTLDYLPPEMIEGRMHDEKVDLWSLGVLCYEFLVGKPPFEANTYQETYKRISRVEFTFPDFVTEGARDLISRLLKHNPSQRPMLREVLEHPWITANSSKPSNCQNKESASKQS
Protocol: The protein was purified by one-step affinity chromatography using nickel-agarose […]
Assay reactions are set up in a 25 uL final volume on a 96 well plate. […] The reaction is allowed to proceed for 30 minutes at room temperature before stopping with 100 μL Stop solution comprising of 100 mM EDTA, 1×BSA blocker in TBS (Perbio) and 0.05% Surfact-Amps20 (Perbio).
The stopped reaction is transferred to a black 96-well Neutravidin-coated plate (Perbio) and incubated for 30 minutes to capture the biotinylated peptide substrate. […] After repeating the washing step, the plate is further incubated for one hour with Europium-labelled anti-rabbit antibody (Perkin Elmer AD0105). The wash step is repeated for a final time before DELFIA Enhancement solution (Perkin Elmer) is added to all wells for 5 minutes and the fluorescence measured on a plate reader Analyst HT (Molecular Devices).

T1 sequence (P35916 789-1207): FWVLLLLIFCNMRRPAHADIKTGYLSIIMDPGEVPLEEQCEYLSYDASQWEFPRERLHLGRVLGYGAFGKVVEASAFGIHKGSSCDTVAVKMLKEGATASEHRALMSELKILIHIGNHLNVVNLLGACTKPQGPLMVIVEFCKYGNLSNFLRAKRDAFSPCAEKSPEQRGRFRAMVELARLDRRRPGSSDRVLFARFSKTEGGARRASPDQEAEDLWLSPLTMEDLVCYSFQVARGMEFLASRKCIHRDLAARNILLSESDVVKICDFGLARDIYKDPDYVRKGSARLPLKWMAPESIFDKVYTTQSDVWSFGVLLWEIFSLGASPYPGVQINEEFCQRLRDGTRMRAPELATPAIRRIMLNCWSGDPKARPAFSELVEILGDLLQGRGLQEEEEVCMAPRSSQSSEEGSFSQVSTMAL

Compound	IC50 (human FLT4)	IC50 (human Aurora A)
CN(C)CCNc1ccc(-c2oc(-c3c(F)cccc3F)nc2C(N)=O)cc1 [Example F-33, 2-(2,6-difluorophenyl)-5-(4-(2-(dimethylamino)ethylamino)phenyl)oxazole-4-carboxamide]	< 10 µM	< 10 µM
NC(=O)c1nc(-c2c(F)cccc2F)oc1-c1ccc(NCCN2CCOCC2)cc1 [Example F-34, 2-(2,6-difluorophenyl)-5-(4-(2-morpholinoethylamino)phenyl)oxazole-4-carboxamide]	< 10 µM	< 10 µM
NC(=O)c1nc(-c2cccnc2)oc1-c1ccc(N2CCNCC2)cc1 [Example M-13, 5-(4-(piperazin-1-yl)phenyl)-2-(pyridin-3-yl)oxazole-4-carboxamide]	< 10 µM	< 10 µM
NC(=O)c1nc(-c2ccncc2)oc1-c1ccc(N2CCNCC2)cc1 [Example M-14, 5-(4-(piperazin-1-yl)phenyl)-2-(pyridin-4-yl)oxazole-4-carboxamide]	< 10 µM	< 10 µM
NC(=O)c1nc(-c2ccc3[nH]ccc3c2)oc1-c1ccc(N2CCNCC2)cc1 [Example M-15, 2-(1H-indol-5-yl)-5-(4-(piperazin-1-yl)phenyl)oxazole-4-carboxamide]	< 10 µM	< 10 µM
NC(=O)c1nc(-c2ccc3cc[nH]c3c2)oc1-c1ccc(N2CCNCC2)cc1 [Example M-16, 2-(1H-indol-6-yl)-5-(4-(piperazin-1-yl)phenyl)oxazole-4-carboxamide]	< 10 µM	< 10 µM
NC(=O)c1nc(-c2ccnc3[nH]ccc23)oc1-c1ccc(N2CCNCC2)cc1 [Example M-18, 5-(4-(piperazin-1-yl)phenyl)-2-(1H-pyrrolo[2,3-b]pyridin-4-yl)oxazole-4-carboxamide]	< 10 µM	< 10 µM
COc1ccc(-c2oc(-c3cc[nH]n3)nc2C(N)=O)cc1 [Example N-1, 5-(4-methoxyphenyl)-2-(1H-pyrazol-5-yl)oxazole-4-carboxamide]	< 10 µM	< 10 µM
COc1ccc(-c2oc(-c3cccc(C)c3)nc2C(N)=O)cc1 [Example N-10, 5-(4-methoxyphenyl)-2-m-tolyloxazole-4-carboxamide]	< 100 µM	< 100 µM
NC(=O)c1nc(-c2c(F)cccc2F)oc1Nc1ccccc1 [Example O-1, 2-(2,6-difluorophenyl)-5-(phenylamino)oxazole-4-carboxamide]	< 10 µM	< 10 µM

Other lines, results leading:

IC50 (human FLT4)	IC50 (human Aurora A)	Compound
< 10 µM	< 10 µM	CS(=O)(=O)c1cccc(Nc2oc(-c3c(F)cccc3F)nc2C(N)=O)c1 [Example Q-4, 2-(2,6-difluorophenyl)-5-(3-(methylsulfonyl)phenylamino)oxazole-4-carboxamide]
< 10 µM	< 100 µM	COc1ccccc1Nc1oc(-c2c(F)cccc2F)nc1C(N)=O [Example Q-5, 2-(2,6-difluorophenyl)-5-(2-methoxyphenylamino)oxazole-4-carboxamide]
< 100 µM	< 100 µM	COc1cccc(Nc2oc(-c3c(F)cccc3F)nc2C(N)=O)c1 [Example Q-6, 2-(2,6-difluorophenyl)-5-(3-methoxyphenylamino)oxazole-4-carboxamide]
< 10 µM	< 10 µM	NC(=O)c1nc(-c2c(F)cccc2F)oc1Nc1ccc(N2CCC(N)CC2)cc1 [Example Q-17, 5-(4-(4-aminopiperidin-1-yl)phenylamino)-2-(2,6-difluorophenyl)oxazole-4-carboxamide]
< 10 µM	< 10 µM	NCC1CCN(c2ccc(Nc3oc(-c4c(F)cccc4F)nc3C(N)=O)cc2)CC1 [Example Q-18, 5-(4-(4-(aminomethyl)piperidin-1-yl)phenylamino)-2-(2,6-difluorophenyl)oxazole-4-carboxamide]
< 10 µM	< 100 µM	COc1ccc(Nc2oc(-c3c(F)cccc3F)nc2C(N)=O)cc1OC [Example Q-39, 2-(2,6-difluorophenyl)-5-(3,4-dimethoxyphenylamino)oxazole-4-carboxamide]
< 100 µM	< 100 µM	NC(=O)c1nc(-c2c(F)cccc2F)oc1Nc1ccc2c(c1)OCO2 [Example Q-41, 5-(benzo[d][1,3]dioxol-5-ylamino)-2-(2,6-difluorophenyl)oxazole-4-carboxamide]
< 10 µM	< 100 µM	NC(=O)c1nc(-c2c(F)cccc2F)oc1Nc1ccc(OC(F)(F)F)cc1 [Example Q-42, 2-(2,6-difluorophenyl)-5-(4-(trifluoromethoxy)phenylamino)oxazole-4-carboxamide]
< 10 µM	< 100 µM	CS(=O)(=O)c1ccc(Nc2oc(-c3c(F)cccc3F)nc2C(N)=O)c(F)c1 [Example Q-43, 2-(2,6-difluorophenyl)-5-(2-fluoro-4-(methylsulfonyl)phenylamino)oxazole-4-carboxamide]
< 10 µM	< 100 µM	CS(=O)(=O)c1ccc(F)c(Nc2oc(-c3c(F)cccc3F)nc2C(N)=O)c1 [Example Q-44, 2-(2,6-difluorophenyl)-5-(2-fluoro-5-(methylsulfonyl)phenylamino)oxazole-4-carboxamide]
< 10 µM	< 10 µM	NC(=O)c1nc(-c2c(F)cccc2F)oc1Nc1cccnc1 [Example Q-45, 2-(2,6-difluorophenyl)-5-(pyridin-3-ylamino)oxazole-4-carboxamide]
< 10 µM	< 10 µM	NC(=O)c1nc(-c2c(F)cccc2F)oc1Nc1ccc(C2CCNCC2)cc1 [Example Q-46, 2-(2,6-difluorophenyl)-5-(4-(piperidin-4-yl)phenylamino)oxazole-4-carboxamide]
< 10 µM	< 10 µM	NC(=O)c1nc(-c2c(F)cccc2F)oc1Nc1ccc(N2CCOCC2)nc1 [Example Q-48, 2-(2,6-difluorophenyl)-5-(6-morpholinopyridin-3-ylamino)oxazole-4-carboxamide]
< 10 µM	< 10 µM	CN1CCN(c2ccc(Nc3oc(-c4c(F)cccc4F)nc3C(N)=O)cn2)CC1 [Example Q-49, 2-(2,6-difluorophenyl)-5-(6-(4-methylpiperazin-1-yl)pyridin-3-ylamino)oxazole-4-carboxamide]
< 10 µM	< 10 µM	NC(=O)c1nc(-c2c(F)cccc2F)oc1Nc1ccc(C(=O)NCC2CCNCC2)cc1 [Example Q-50, 5-(4-((piperidin-4-ylmethyl)carbamoyl)phenylamino)-2-(2,6-difluorophenyl)oxazole-4-carboxamide]
< 10 µM	< 10 µM	NCCCNC(=O)c1ccc(Nc2oc(-c3c(F)cccc3F)nc2C(N)=O)cc1 [Example Q-51, 5-(4-((3-aminopropyl)carbamoyl)phenylamino)-2-(2,6-difluorophenyl)oxazole-4-carboxamide]
< 10 µM	< 10 µM	NCCNC(=O)c1ccc(Nc2oc(-c3c(F)cccc3F)nc2C(N)=O)cc1 [Example Q-52, 5-(4-((2-aminoethyl)carbamoyl)phenylamino)-2-(2,6-difluorophenyl)oxazole-4-carboxamide]
< 10 µM	< 10 µM	NC(=O)c1nc(-c2c(F)cccc2F)oc1Nc1ccc(C(=O)N[C@@H]2CCCNC2)cc1 [Example Q-53, (R)-2-(2,6-difluorophenyl)-5-(4-(piperidin-3-ylcarbamoyl)phenylamino)oxazole-4-carboxamide]
< 10 µM	< 10 µM	NC(=O)c1nc(-c2c(F)cccc2F)oc1Nc1ccc(C(=O)N[C@H]2CCCNC2)cc1 [Example Q-54, (S)-2-(2,6-difluorophenyl)-5-(4-(piperidin-3-ylcarbamoyl)phenylamino)oxazole-4-carboxamide]
